# System: human mammary adenocarcinoma cell line, MCF-7
# Test: Cell viability MTT assay on MCF-7 cells
# Type: cell-based
# Settings: MCF-7, 48 h
# Experimental: Cells were maintained in DMEM (Dulbecco's Modified Eagle Medium) (Gibco, life technologies) supplemented with 10% heat inactivated fetal bovine serum (HI-FBS) (Gibco, life technology), 1% Penicillin Streptomycin (100×— Gibco, life technology), and 1% MEM NEAA (MEM non-essential amino acids) (100×— Gibco, life technology). Cells were kept in a humidified incubator at 37° C. with 5% CO2. For the experimental setup, MCF-7 cells were seeded on a 96-well plate at a density of 20,000 cells/well. On the next day, cells were shifted to the starve media (0.5% HI-FBS containing media) for 24 h before treatment.
# For groups B, C, E, and F, treatment concentrations were as follows: 0.025, 0.05, 0.1, and 0.5 mg/mL. […] Therefore, treatment concentrations for group A were as follows: 0.0084, 0.0168, 0.0336, and 0.168 mg/mL. Treatment concentrations used in this experiment for group D were as follows: 0.001125, 0.00225, 0.0045, 0.0225 mg/mL.
# The viability of cells was tested using 3-(4,5-dimethylthiazol-2-yl)-2,5-diphenyltetrazolium bromide (MTT) assay. It is based on the ability to reduce MTT relative to formazan crystals. […] The change in color intensity was measured at 570 nm wavelength using SYNERGY-neo2 BioTek ELISA reader. […] The reading of each triplicate was averaged and subtracted from the averaged MTT background control reading. […]
structure (smiles),measurement,value
N.N.[Cl][Pt][Cl] [cisplatin],effect on cell viability (in words),significantly reduced cell viability
